Molecules are shown by their SMILES.

The first assay has as its target T1, hAxl/IFN-γR1 (Homo sapiens, UniProt P30530).
T1 construct: containing human Axl extracellular domains and transmembrane and intracellular domains of human IFN-γR1; human IFN-γR1 transmembrane and intracellular domains (fusion partner); expressed in transfected cells
T1 sequence (P30530 26-451 limits assumed): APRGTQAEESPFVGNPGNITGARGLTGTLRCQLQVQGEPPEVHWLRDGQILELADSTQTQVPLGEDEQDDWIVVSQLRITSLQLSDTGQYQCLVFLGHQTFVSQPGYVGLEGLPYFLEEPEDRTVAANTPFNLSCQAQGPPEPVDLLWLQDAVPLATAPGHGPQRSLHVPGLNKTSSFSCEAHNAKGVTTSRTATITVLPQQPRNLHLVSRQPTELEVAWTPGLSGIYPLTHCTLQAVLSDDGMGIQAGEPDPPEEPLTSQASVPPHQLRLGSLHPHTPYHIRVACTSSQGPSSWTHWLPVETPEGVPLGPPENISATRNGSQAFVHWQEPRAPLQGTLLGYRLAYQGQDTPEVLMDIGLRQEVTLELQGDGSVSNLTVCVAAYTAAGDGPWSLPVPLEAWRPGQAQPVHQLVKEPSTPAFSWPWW
The assay can be described thus: hAxl/IFN-γR1 CHO reporter cell line assay, Gas6-induced activation (pSTAT1 immunoblot). It counts as cell-based.
Conditions: not given
On the procedure:
Stable HEK 293 cells secreting human Gas6 (clone 7.4.1) were allowed to achieve 70% confluence in a 10-cm plate. The complete medium with 10% FBS was then changed into serum free media in the presence of 10 µg/mL vitamin K1 (Phytonadione injectable emulsion from Hospira). After 72 hours, the Gas6 conditioned medium was collected, and validated for the presence of Gas6 and γ-carboxylation (by immunoblot) and activity of Gas6 (via activation of pSTAT1 in hAxl/γR1 cells).
Stable hAxl/IFN-γR1 CHO reporter cell lines (containing human Axl extracellular domains and transmembrane and intracellular domains of human IFN-γR1) were serum starved for 5 hrs±small molecule inhibitors and then stimulated with human Gas6 conditioned media±small molecule inhibitors for 30 minutes. For H1299 human non-small cell lung carcinoma and MDA-MB-231 human breast adenocarcinoma cell lines, the cells were serum starved overnight±small molecule inhibitors and stimulated with human Gas6 conditioned media±small molecule inhibitors for 30 minutes. Whole cell lysates of hAxl/IFN-γR1, H1299 and MDA-MB-231 cells were prepared using HNTG buffer (20 mM HEPES, pH 7.5, 150 mM NaCl, 10% glycerol, 1% Triton X-100, 1 mM PMSF, 1 mM Na3VO4, 10 mM Na2MoO4, 1 mM EDTA, 10 mM NaF and 20 μg/mL aprotinin). The resulting lysates were resolved on SDS-PAGE gel and immunoblotted with respective antibodies.
Immunoblot data were obtained within a linear range of exposure, and intensities were quantified by ImageJ. The levels of hAxl/IFN-γR1 cells lines activation were measured by pSTAT1 whereas the levels of H1299 and MDA-MB-231 cell lines activation were measured by pAxl signal intensities. Blots were normalized to intensities of respective β-actin or GAPDH protein loading controls. The levels of pSTAT1 or pAxl activation induced by Gas6±small molecule inhibitors were plotted as a fold of enhancement or reduction over intensities induced by Gas6 alone.
For `Cc1cc(CSc2ccccc2C(=O)N2CCN(Cc3ccc4c(c3)CCO4)CC2)no1` [1A], the remaining activity at 10 µM was found to be 60%.
Still for that read-out and setting: the result for `Cc1cc(CSc2ccccc2C(=O)N2CCN(CC(=O)N3CCOCC3)CC2)no1` [1B] reads 70%.
As for `Cc1cc(CSc2ccccc2C(=O)N2CCN(Cc3ccc(C#N)cc3)CC2)no1` [1C], the remaining activity at 10 µM was 60%.
On the same count and under the same terms, the result for `Cc1cc(CSc2ccccc2C(=O)N2CCN(Cc3ccncc3)CC2)no1` [1D] reads 50%.
On the same count and under the same terms, the result for `Cc1nc(CSc2ccccc2C(=O)N2CCN(Cc3ccccc3)CC2)cs1` [1E] reads 60%.
On the same count and under the same terms, the result for `Cc1cc(CSc2ccccc2C(=O)N2CCN(Cc3nc4ccccc4s3)CC2)no1` [1F] reads 20%; that for `O=C(c1ccccc1SCc1ccsc1)N1CCN(Cc2ccncc2)CC1` [1H], 20%; that for `Cc1cc(CSc2ncccc2C(=O)N2CCN(CC(=O)Nc3cccc(C)c3C)CC2)no1` [1K], 80%.
On to `Cc1cc(CSc2ncccc2C(=O)N2CCN(CC(=O)Nc3ccccc3Cl)CC2)no1` [1L], for which the remaining activity at 10 µM is 20%.
The same measure, in the same setting: the result for `Cc1noc(C)c1CSc1ccccc1C(=O)N1CCN(Cc2cccs2)CC1` [1M] reads 20%; that for `Cc1cc(CSc2ccccc2C(=O)N2CCN(CC(=O)Nc3ccccc3Cl)CC2)no1` [1N], 30%; that for `O=C(c1ccccc1SCc1cccs1)N1CCN(Cc2ccncc2)CC1` [1O], 40%.
The same measure, in the same setting: the result for `Cc1nc(COc2ccccc2C(=O)N2CCN(Cc3ccncc3)CC2)cs1` [1P] reads 100%; that for `Cc1cc(CSc2ccccc2C(=O)NCCNc2ccccc2[N+](=O)[O-])on1` [1R], 40%; that for `Cc1cc(CSc2ncccc2C(=O)NCCNc2ccc(C(F)(F)F)cc2[N+](=O)[O-])on1` [Compound 2], 57%.
`Cc1cc(CSc2ncncc2C(=O)NCCNc2ccc(C(F)(F)F)cc2[N+](=O)[O-])on1` [Compound 3]: the remaining activity at 10 µM amounted to 26%.
Still for that read-out and setting: the result for `Cc1cc(CSc2nc(C)cc(C)c2C(=O)NCCNc2ccc(C(F)(F)F)cc2[N+](=O)[O-])on1` [Compound 4] reads 83%; that for `Cc1cc(CSc2ccccc2C(=O)NCCNc2nc3ccccc3s2)on1` [Compound 5], 13%; that for `Cc1cc(CSc2ccccc2C(=O)NCCNc2ccc(C(F)(F)F)cn2)on1` [Compound 6], 6%.
Same read-out and setting: the result for `Cc1cc(CSc2ccccc2C(=O)NCCNc2nc3cc(C(F)(F)F)ccc3s2)on1` [Compound 7] reads 33%; that for `Cc1cc(CSc2ccccc2C(=O)NCCNc2ccc(C(F)(F)F)cc2C#N)on1` [Compound 8], 9%.
`Cc1cc(CSc2ccccc2C(=O)NCCNc2nc3ccccc3o2)on1` [Compound 9]: the remaining activity at 10 µM was 20%.
On the same count and under the same terms, the result for `Cc1cc(CSc2ccccc2C(=O)NCCNc2ccc(F)cc2C#N)on1` [Compound 10] reads 14%; that for `Cc1cc(CSc2ccccc2C(=O)NCCNc2ccc(C(F)(F)F)c(C#N)c2)on1` [Compound 11], 29%.
As for `Cc1cc(CSc2ccccc2C(=O)NCCNc2ccc(C#N)cc2)on1` [Compound 12], the remaining activity at 10 µM is 16%.
On the same count and under the same terms, the result for `Cc1cc(CSc2ccccc2C(=O)NCCNc2nc(C(F)(F)F)cs2)on1` [Compound 13] reads 6%; that for `Cc1cc(CSc2ccccc2C(=O)N2CCN(CC(=O)Nc3ccc(F)cc3)CC2)no1` [Compound 14], 110%; that for `Cc1cc(CSc2ccccc2C(=O)N2CCN(Cc3nc4ccccc4[nH]3)CC2)no1` [Compound 15], 141%.
Still for that read-out and setting: the result for `Cc1cc(CSc2ccccc2C(=O)N2CCN(CC(=O)Nc3ccccc3F)CC2)no1` [Compound 16] reads 109%; that for `Cc1cc(CSc2ccccc2C(=O)N2CCN(CC(=O)Nc3ccc(Cl)cc3)CC2)no1` [Compound 17], 79%; that for `Cc1cc(CSc2ccccc2C(=O)N2CCN(CC(=O)Nc3ccc(Cl)cn3)CC2)no1` [Compound 18], 46%.
The same measure, in the same setting: the result for `Cc1cc(CSc2ccccc2C(=O)N2CCN(Cc3nc4ccccc4o3)CC2)no1` [Compound 19] reads 41%; that for `Cc1cc(CSc2ccccc2C(=O)N2CCN(Cc3nc4cccc(Cl)c4o3)CC2)no1` [Compound 20], 55%.
Turning to `Cc1cc(CSc2ccccc2C(=O)N2CCN(Cc3nc4cc(Cl)ccc4s3)CC2)no1` [Compound 21], the remaining activity at 10 µM came to 8%.
Still for that read-out and setting: the result for `CCN(C(=O)CN1CCN(C(=O)c2ccccc2SCc2cc(C)on2)CC1)c1ccc(F)cc1` [Compound 22] reads 108%; that for `Cc1cc(CSc2ccccc2C(=O)N2CCN(Cc3nc4cc(C(F)(F)F)ccc4s3)CC2)no1` [Compound 23], 8%; that for `COc1ccc2nc(CN3CCN(C(=O)c4ccccc4SCc4cc(C)on4)CC3)sc2c1` [Compound 24], 90%.
Consider `Cc1ccc(NC(=O)CN2CCN(C(=O)c3ccccc3SCc3cc(C)on3)CC2)c(Cl)c1` [Compound 25], for which the remaining activity at 10 µM came out at 27%.
Same read-out and setting: the result for `Cc1cc(CSc2ccccc2C(=O)N2CCN(CC(=O)NCc3ccc(Cl)cc3)CC2)no1` [Compound 26] reads 54%.
On the same count and under the same terms, the result for `Cc1cc(CSc2ccccc2C(=O)NCCNc2ncccn2)on1` [Compound 27] reads 16%.
Same read-out and setting: the result for `Cc1cc(CSc2ccccc2C(=O)NCCNc2ncc(C(F)(F)F)cc2Cl)on1` [Compound 28] reads 6%.

A further assay concerns the target T2, Tyro3 (Homo sapiens, UniProt Q06418).
T2 sequence (Q06418 41-890): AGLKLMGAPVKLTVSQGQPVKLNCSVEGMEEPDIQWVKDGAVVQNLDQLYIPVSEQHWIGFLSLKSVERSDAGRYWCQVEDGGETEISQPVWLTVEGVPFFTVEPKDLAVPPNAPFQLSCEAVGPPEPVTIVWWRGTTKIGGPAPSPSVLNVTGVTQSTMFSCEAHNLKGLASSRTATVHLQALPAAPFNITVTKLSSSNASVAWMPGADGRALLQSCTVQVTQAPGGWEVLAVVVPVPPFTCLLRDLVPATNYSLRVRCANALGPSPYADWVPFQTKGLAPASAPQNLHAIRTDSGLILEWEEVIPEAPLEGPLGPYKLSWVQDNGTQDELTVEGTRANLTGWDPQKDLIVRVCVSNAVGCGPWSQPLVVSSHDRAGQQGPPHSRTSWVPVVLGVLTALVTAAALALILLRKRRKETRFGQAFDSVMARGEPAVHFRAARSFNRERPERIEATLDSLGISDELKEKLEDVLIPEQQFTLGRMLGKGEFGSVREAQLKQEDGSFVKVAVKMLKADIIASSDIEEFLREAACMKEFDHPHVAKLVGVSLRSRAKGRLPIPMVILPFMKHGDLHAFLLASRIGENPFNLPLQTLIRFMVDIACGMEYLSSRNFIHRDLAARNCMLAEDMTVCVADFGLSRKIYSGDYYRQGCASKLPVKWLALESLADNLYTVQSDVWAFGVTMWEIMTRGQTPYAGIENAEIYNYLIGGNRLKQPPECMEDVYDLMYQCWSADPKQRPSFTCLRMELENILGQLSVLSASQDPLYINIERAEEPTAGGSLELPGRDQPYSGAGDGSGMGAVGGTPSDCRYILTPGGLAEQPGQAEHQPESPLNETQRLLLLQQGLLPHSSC
Test: not given
Conditions: cited from earlier work.
As a reminder, the IC50 is the concentration that gives 50% inhibition. As to `Nc1nc(Nc2ccc3c(c2)CC[C@@H](N2CCCC2)CC3)nn1-c1cc2c(nn1)-c1ccccc1CCC2` [BGB324], the IC50 was 1.4 µM.
